# Legend:
# Assay in all cases: area under dose-response curve of surviving fraction (unscaled, Aref=0) (surviving fraction x log10(nM)); higher = more resistant
# Details in all cases: exposure time: 5 days; dose range 0.5-1000 nM
# [1] = compound: Cc1cn(-c2cc(NC(=O)c3ccc(C)c(Nc4nccc(-c5cccnc5)n4)c3)cc(C(F)(F)F)c2)cn1 [NILOTINIB]
# In short: (§1)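 Tumour cell lines in 384-well plates were exposed to eight inhibitor concentrations, from 0.5 to 1000 nM, for five days, and viability was read by CellTiter-Glo luminescence in three screens per line. Signals were normalised to DMSO-only wells, and 3-parameter logistic regression in the drc R package fitted dose-response survival curves to the surviving fractions. Area under the curve is given as the unscaled activity area. That area is taken over log10 dose with Aref = 0.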
# [2] = compound: Cn1c(=O)n(-c2ccc(C(C)(C)C#N)cc2)c2c3cc(-c4cnc5ccccc5c4)ccc3ncc21 [BEZ-235]
# In short: as §1
# [3] = compound: C=CCn1c(=O)c2cnc(Nc3ccc(N4CCN(C)CC4)cc3)nc2n1-c1cccc(C(C)(C)O)n1 [MK-1775]
# In short: as §1
# [4] = compound: COc1cc2nccc(Oc3ccc(NC(=O)NC4CC4)c(Cl)c3)c2cc1C(N)=O [LENVATINIB]
# In short: as §1
# [5] = compound: CC/C(=C(\c1ccc(O)cc1)c1ccc(OCCN(C)C)cc1)c1ccccc1 [AFIMOXIFENE]
# In short: as §1
# [6] = compound: Cc1c(N)nc([C@H](CC(N)=O)NC[C@H](N)C(N)=O)nc1C(=O)N[C@H](C(=O)N[C@H](C)[C@@H](O)[C@H](C)C(=O)N[C@H](C(=O)NCCc1nc(-c2nc(C(=O)NCCC[S+](C)C)cs2)cs1)[C@@H](C)O)[C@@H](OC1OC(CO)C(O)C(O)C1OC1OC(CO)C(O)C(OC(N)=O)C1O)c1cnc[nH]1 [BLEOMYCIN]
# In short: as §1
# [7] = compound: Cc1ccc(NC(=O)c2ccc(CN3CCN(C)CC3)cc2)cc1Nc1nccc(-c2cccnc2)n1 [IMATINIB]
# In short: as §1
# [8] = compound: COc1ccc(-c2cc3c(C)nc(N)nc3n([C@H]3CC[C@H](OCCO)CC3)c2=O)cn1
# In short: as §1
# [9] = compound: C[C@H](CN(C)C)Oc1nc(Nc2cc3cccc(Cl)c3cn2)cnc1C#N
# In short: as §1
# [10] = compound: CCc1cc(Nc2nccc(-c3c(-c4ccc(OC)c(C(=O)Nc5c(F)cccc5F)c4)nc4ccccn34)n2)c(OC)cc1N1CCC(N2CCN(S(C)(=O)=O)CC2)CC1
# In short: as §1
Test System,area under dose-response curve [1],area under dose-response curve [2],area under dose-response curve [3],area under dose-response curve [4],area under dose-response curve [5],area under dose-response curve [6],area under dose-response curve [7],area under dose-response curve [8],area under dose-response curve [9],area under dose-response curve [10]
22RV1 PROSTATE,3.59,2.09,2.97,3.44,3.57,2.95,3.51,1.98,,
93VU HEADNECK,,2.65,2.31,3.67,4.12,2.25,3.93,2.13,3.44,3.51
143B BONE,,2.55,2.71,3.51,,3.15,,2.78,,3.38
A549 LUNG,3.59,2.55,3.15,3.51,3.56,3.18,3.65,2.8,3.25,3.29
ASKA SYNOVIAL,3.26,2.61,2.32,3.69,3.82,2.57,3.79,2,2.79,3.91
BT20 BREAST,3.28,2.35,2.77,3.71,4.62,2.25,4.15,2.52,4.01,
BT549 BREAST,3.42,2.29,2.27,3.7,3.21,1.6,3.76,2.15,2.68,3.58
C33A CERVIX,3.63,2.24,2.33,3.26,3.76,2.02,3.47,2.1,3,2.94
CADOES1 SOFT TISSUE,,2.12,2.76,2.86,,2.17,3.08,2.15,2.48,3.13
CAL51 BREAST,3.22,1.99,2.31,3.18,3.36,2.39,3.53,2.28,2.73,3.35
CAL72 BONE,3.29,2.3,2.65,,3.6,3.13,3.71,2.62,2.93,3.56
CAL120 BREAST,3.5,2.06,2.62,3.14,3.29,2.66,3.08,2.16,3.04,3.17
CASKI CERVIX,2.97,1.99,2,3.28,3.25,1.94,3.28,1.97,2.76,3.15
CHLA90 AUTONOMIC GANGLIA,3.5,2.25,2.46,3.23,3.42,2.89,3.45,2.37,2.86,3.16
CME SYNOVIAL,,,,,4.56,1.51,,2.55,4.25,
COLO320DM LARGE INTESTINE,,2.61,2.44,3.67,3.71,3.13,3.72,2.16,2.74,3.7
DU4475 BREAST,3.45,1.94,2.29,,2.84,2.19,3.54,1.53,3.04,3.05
H23 LUNG,3.78,2.16,2.55,3.58,3.5,1.99,3.56,1.86,3.29,
HCC78 LUNG,,2.2,2.58,3.39,3.19,1.97,3.61,1.41,2.74,2.74
HCC202 BREAST,,2.62,2.67,,,,,2.16,,4
HCC1395 BREAST,3.22,3.18,3.14,3.23,3.9,2.73,4.07,2.91,,3
HCC1806 BREAST,2.94,2.63,2.16,3.49,,1.54,3.65,2.72,2.4,3.26
HCC1954 BREAST,2.74,2.11,2.32,3.2,,1.38,3.5,2.09,3.14,3.23
HCT15 LARGE INTESTINE,3.52,2.4,3.01,3.67,3.52,2.34,3.74,2.38,3.27,3.39
HELA CERVIX,3.53,3.17,2.7,3.67,3.54,3.15,3.58,2.88,3.28,3.49
HOSMNG BONE,3.21,2.74,2.85,3.46,3.26,,3.46,2.74,3.22,3.35
HU09 BONE,2.76,2.26,2.34,2.42,3.44,2.58,2.91,1.71,2.89,
KPD BONE,3.25,2.12,2.7,,3.52,2.48,3.49,1.97,2.98,3.24
LNCAP PROSTATE,3.62,1.95,2.42,3.21,3.37,,3.3,1.49,2.72,2.98

# Source: the supplement of paper PMC6045584
